One series has as its system SKOV3ip1 cells. The series is described as follows: Human SKOV3ip1 tumor growth inhibition assay in mice. It is filed as in vivo. The conditions noted are these: mice i.p. SKOV3ip1, after one month of treatment, paclitaxel 5 mg/kg once a week i.p., CF(I) 100 mg/kg once a day oral. As to the method:
An aqueous 0.5% (by weight) solution of methylcellulose is prepared by stiffing the appropriate quantity of methylcellulose in the appropriate quantity of water for 4 hours. This solution can be prepared up to 3 days in advance. On the day of the experiment, 0.05% (by volume) of Tween 80 is dissolved in the methylcellulose solution previously obtained to yield the vehicle solution.
(§1) 43 mice are injected i.p. with 10^6 SKOV3ip1 cells. Ten days later, the tumor weight is evaluated in three of the mice. Treatment with a suspension of the compound of formula (I) in the vehicle solution (10 mice), paclitaxel (Mead Johnson, Princeton, N.J., USA) diluted 1:6 in phosphate buffered saline (PBS) for i.p. injections (10 mice), a suspension of the compound of formula (I) in the vehicle solution as well as paclitaxel diluted 1:6 in PBS for further dilution and i.p. injections (10 mice), or the vehicle solution only (10 mice), the vehicle solution being as described above, is administered to the mice using the following doses, frequencies and routes: • paclitaxel: 5 mg/kg (125 μg paclitaxel in 200 μL PBS per mouse), once a week, i.p. route; • compound of formula (I): 100 mg/kg (as suspension in the vehicle solution at a concentration of up to 25 mg/mL), once a day, oral route.
After one month of treatment, the tumor incidence and weight are determined in each of the mice. At the same time, the ascite incidence and volume are also determined.

For a further series, the system named is HeyA8-MDR cells. Kind of series: Multi-drug resistant human ovarian HeyA8-MDR tumor growth inhibition assay in mice. In kind it is in vivo. The conditions noted are these: female nude mice i.p. HeyA8-MDR; after 4 weeks of treatment; paclitaxel 5 mg/kg once a week i.p.; CF(I) 50 mg/kg once a day oral. Here is the method:
(§2) The vehicle solution is the same as that described for the “Human SKOV3ip1 tumor growth inhibition assay in mice” (see above).
43 female nude mice are injected i.p. with 10^6 HeyA8-MDR cells into the peritoneal cavity. Ten days later, the tumor weight is evaluated in three of the mice. Mice groups and treatments (doses, frequencies and routes) for the mice groups are the same as those described in the experimental procedure for the “Human IGROV tumor growth inhibition assay in mice” (see above). After 4 weeks of treatment, the tumor incidence and weight are determined in each of the mice.

The subject of the next series is IGROV cells. The series is described as follows: Human IGROV tumor growth inhibition assay in mice. It is filed as in vivo. The conditions noted are these: female nude mice i.p. IGROV; after 4 weeks of treatment; paclitaxel 5 mg/kg once a week i.p.; CF(I) 50 mg/kg once a day oral. As to the method:
as §2
as §1, with “43 female nude” for “43”, “IGROV cells into the peritoneal cavity.” for “SKOV3ip1 cells.”, “paclitaxel” for “paclitaxel (Mead Johnson, Princeton, N.J., USA)”, “for” for “for further dilution and”, “50” for “100”
After 4 weeks of treatment, the tumor incidence and weight are determined in each of the mice.

The test system of the next series is ovarian cancer. The note with it: combined with paclitaxel; cited from earlier work.
In another series the test system is ovarian tumor cells. The conditions noted are these: in vitro; cited from earlier work.
Another series relates to human ovarian carcinoma. The note with it: in vitro and in vivo; cited from earlier work.

As to `CCCNS(=O)(=O)Nc1ncnc(OCCOc2ncc(Br)cn2)c1-c1ccc(Br)cc1` [CF(I), macitentan], in the series on SKOV3ip1 cells, the Ascite incidence is recorded as 7/10, the “Ascites (mL) Median (range)” value was 0.4 (0-4.7) mL, the “Body weight (g) Mean ± S.D.” value is 25.5 ± 2.6 g and the Tumor incidence is given as 7/10. Further, the “Tumor weight (g) Median (range)” value in the series on SKOV3ip1 cells is on record as 2.3 (0-4.6) g. The Ascite incidence with SKOV3ip1 cells (listed as compound of formula (I)) is given as 7 out of 10. In addition, in the series with HeyA8-MDR cells, the “Body weight (g) Mean ± S.D.” value was 27.0 ± 2.2 g, the Tumor incidence is 6/10 and the “Tumor weight (g) Median (range)” value was 0.1 (0-0.3) g. Further, in the series on IGROV cells, the “Body weight (g) Mean ± S.D.” value is listed as 31.0 ± 4.4 g, the Tumor incidence is reported as 10/10 and the “Tumor weight (g) Median (range)” value is given as 0.7 (0.4-1.3) g.
Turning to `CCCCN(CCCC)C(=O)CN1C[C@H](c2ccc3c(c2)OCO3)[C@@H](C(=O)O)[C@@H]1c1ccc(OC)cc1` [ABT-627, atrasentan], in the series on ovarian cancer, the “Effect of combination with paclitaxel” value was “additive antitumor, apoptotic and antiangiogenic effects”.
For the compound `CCCC[C@@H](NC(=O)[C@@H](Cc1cn(C(=O)OC)c2ccccc12)NC(=O)[C@H](CC(C)(C)C)NC(=O)N1[C@H](C)CCC[C@@H]1C)C(=O)O` [BQ 788], the “Inhibition of cell adhesiveness” value with ovarian tumor cells was “ineffective”.
For `COc1nc(C)cnc1NS(=O)(=O)c1cccnc1-c1ccc(-c2nnco2)cc1` [ZD4054], the “Effect on tumor growth and paclitaxel activity” value in the series with human ovarian carcinoma was “inhibits tumor growth and enhances paclitaxel activity”.
On to `CC(=O)O[C@H]1C(=O)[C@@]2(C)[C@H]([C@H](OC(=O)c3ccccc3)[C@]3(O)C[C@H](OC(=O)[C@H](O)[C@@H](NC(=O)c4ccccc4)c4ccccc4)C(C)=C1C3(C)C)[C@]1(OC(C)=O)CO[C@@H]1C[C@@H]2O` [Paclitaxel], for which, in the series on SKOV3ip1 cells, the Ascite incidence is recorded as 4/9, the “Ascites (mL) Median (range)” value is given as 0.1 (0-0.2) mL, the “Body weight (g) Mean ± S.D.” value is on record as 23.6 ± 1.9 g and the Tumor incidence is recorded as 9/9. For the same compound, the “Tumor weight (g) Median (range)” value with SKOV3ip1 cells is 0.4 (0.1-0.5) g. For the same compound, in the series on SKOV3ip1 cells (listed as paclitaxel), the Ascite incidence is 4 out of 9 and the Tumor incidence result is reported as “all mice still had tumors”. In the series with HeyA8-MDR cells, the “Body weight (g) Mean ± S.D.” value is on record as 27.7 ± 3.7 g, the Tumor incidence is 10/10 and the “Tumor weight (g) Median (range)” value is 1.0 (0.5-2.3) g. In the series with IGROV cells, the “Body weight (g) Mean ± S.D.” value stood at 28.5 ± 2.4 g, the Tumor incidence is 9/10 and the “Tumor weight (g) Median (range)” value is reported as 0.5 (0-0.9) g.

Values taken from US20130317048A1, “COMBINATION COMPRISING PACLITAXEL FOR TREATING OVARIAN CANCER” (Actelion Pharmaceuticals Ltd., priority 2008, published 2013).
